Columns and labels:
Experiment in all cases: combination Emax (second highest fraction inhibited in the dose matrix, 72 h); higher = more inhibition; extreme values may be limits of the assay
[1] = test system: LK-2 (Squamous Cell Lung Carcinoma)
Outline: (§1)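 Cell lines in DMEM/F12 or RPMI with 10% FBS were plated in 1536-well plates, held 24 hours at 37°C, 5% CO2, then given two-drug dose matrices for 72 hours (DMSO typically 0.2%). Viability was read by CellTiter-Glo 2.0 luminescence and scaled as inhibition from 0 (vehicle wells) to 1 (blank wells). Combination Emax is the second-highest inhibition in the matrix; Bliss excess is observed combination effect minus expected EA + EB − EA·EB, EA and EB being single-agent effects.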

[2] = test system: MKN45 (Gastric Carcinoma)
Outline: as §1

[3] = test system: RKN (Other Solid Carcinomas)
Outline: as §1

[4] = test system: L-1236 (Hodgkin's Lymphoma)
Outline: as §1

[5] = test system: PSN1 (Pancreatic Carcinoma)
Outline: as §1

[6] = test system: CAL-62 (Thyroid Gland Carcinoma)
Outline: as §1

[7] = test system: PANC-03-27 (Pancreatic Carcinoma)
Outline: as §1

[8] = test system: COLO-680N (Esophageal Squamous Cell Carcinoma)
Outline: as §1

[9] = test system: HSC-39 (Gastric Carcinoma)
Outline: as §1

SK-MEL-2 (Melanoma) = test system: SK-MEL-2 (Melanoma)
Outline: as §1

[10] = test system: PC-3_[JPC-3] (Lung Adenocarcinoma)
Outline: as §1

[11] = test system: MFE-280 (Endometrial Carcinoma)
Outline: as §1

[12] = test system: SHP-77 (Small Cell Lung Carcinoma)
Outline: as §1

[13] = test system: NCI-H2342 (Lung Adenocarcinoma)
Outline: as §1

[14] = test system: RCM-1 (Colorectal Carcinoma)
Outline: as §1

[15] = test system: TE-8 (Esophageal Squamous Cell Carcinoma)
Outline: as §1

[16] = test system: SK-PN-DW (Other Solid Carcinomas)
Outline: as §1

NB12 (Neuroblastoma) = test system: NB12 (Neuroblastoma)
Outline: as §1

[17] = test system: REH (B-Lymphoblastic Leukemia)
Outline: as §1

IST-MES1 (Mesothelioma) = test system: IST-MES1 (Mesothelioma)
Outline: as §1

Compound	combination Emax [1]	combination Emax [2]	combination Emax [3]	combination Emax [4]	combination Emax [5]	combination Emax [6]	combination Emax [7]	combination Emax [8]	combination Emax [9]	combination Emax (SK-MEL-2 (Melanoma))	combination Emax [10]	combination Emax [11]	combination Emax [12]	combination Emax [13]	combination Emax [14]	combination Emax [15]	combination Emax [16]	combination Emax (NB12 (Neuroblastoma))	combination Emax [17]	combination Emax (IST-MES1 (Mesothelioma))
C=CCn1c(=O)c2cnc(Nc3ccc(N4CCN(C)CC4)cc3)nc2n1-c1cccc(C(C)(C)O)n1 [AZD1775] + CCc1c2c(nc3ccc(O)cc13)-c1cc3c(c(=O)n1C2)COC(=O)[C@]3(O)CC [SN-38] (first compound max 1 µM, partner max 0.3 µM)	0.975	0.843	0.817	0.969	0.927	0.893	0.844	0.483	1	0.619	0.736	0.87	0.651	0.737	0.775	0.923	0.947	0.879	0.989	0.778
C=CCn1c(=O)c2cnc(Nc3ccc(N4CCN(C)CC4)cc3)nc2n1-c1cccc(C(C)(C)O)n1 [AZD1775] + Nc1ccn([C@@H]2O[C@H](CO)[C@@H](O)C2(F)F)c(=O)n1 [Gemcitabine] (first compound max 1 µM, partner max 0.3 µM)	0.982	0.753	0.633	0.954	0.832	0.826	0.703	0.419	1	0.507	0.574	0.655	0.676	0.784	0.593	0.806	0.864	0.806	0.999	0.831
CN(CCO)CC[C@H](CSc1ccccc1)Nc1ccc(S(=O)(=O)NC(=O)c2ccc(N3CCC([C@@H](O)c4ccccc4-c4ccc(Cl)cc4)CC3)cc2)cc1S(=O)(=O)C(F)(F)F [AZD4320] + CC(=O)O[C@H]1C(=O)[C@@]2(C)[C@H]([C@H](OC(=O)c3ccccc3)[C@]3(O)C[C@H](OC(=O)[C@H](O)[C@@H](NC(=O)c4ccccc4)c4ccccc4)C(C)=C1C3(C)C)[C@]1(OC(C)=O)CO[C@@H]1C[C@@H]2O [Paclitaxel] (first compound max 1 µM, 7x7, partner max 3 µM)	1	0.751	0.994	1	0.942	0.951	0.885	0.771	1	0.915	0.76	0.979	1	0.977	0.54	0.967	0.918	1	1	0.873
CN(CCO)CC[C@H](CSc1ccccc1)Nc1ccc(S(=O)(=O)NC(=O)c2ccc(N3CCC([C@@H](O)c4ccccc4-c4ccc(Cl)cc4)CC3)cc2)cc1S(=O)(=O)C(F)(F)F [AZD4320] + CS(=O)(=O)CCNCc1ccc(-c2ccc3ncnc(Nc4ccc(OCc5cccc(F)c5)c(Cl)c4)c3c2)o1 [Lapatinib] (first compound max 1 µM, 7x7, partner max 10 µM)	0.977	0.2	0.212	1	0.267	0.911	0.907	0.481	0.985	0.27	0.912	0.962	0.969	0.368	0.901	0.744	0.85	1	1	0.892
CN(CCO)CC[C@H](CSc1ccccc1)Nc1ccc(S(=O)(=O)NC(=O)c2ccc(N3CCC([C@@H](O)c4ccccc4-c4ccc(Cl)cc4)CC3)cc2)cc1S(=O)(=O)C(F)(F)F [AZD4320] + Nc1ccn([C@@H]2O[C@H](CO)[C@@H](O)C2(F)F)c(=O)n1 [Gemcitabine] (first compound max 1 µM, 7x7, partner max 0.3 µM)	0.916	0.582	0.275	1	0.885	0.911	0.737	0.3	0.869	0.0969	0.675	0.8	0.549	0.403	0.37	0.57	0.165	1	1	0.8
C[C@@H]1COCCN1c1cc(C2([S@](C)(=N)=O)CC2)nc(-c2ccnc3[nH]ccc23)n1 [AZD6738] + C1CC(C1)(C(=O)[O-])C(=O)[O-].N.N.[Pt+2] [Carboplatin] (first compound max 10 µM, 7x7, partner max 10 µM)	0.406	0.708	0.286	0.807	0.435	0.684	0.652	0.287	1	0.201	0.294	0.302	0.506	0.492	0.638	0.522	0.903		0.629	0.461

— the supplement of paper PMC11061612
